Test results published in PubChem BioAssay (NCI).
Where “and” joins values, the source holds several entries; their conditions need not be identical. Equal entries are not always repeated.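 These data come from cells grown in 96-well plates and exposed to compound for 48 hours at five concentrations. GI50 is the concentration that inhibits growth by half. TGI: total growth inhibition.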

Key:
Experiment in all cases: NCI tumour cell line growth inhibition, 48 h
[1] = test system: MOLT-4 leukemia
[2] = test system: SK-MEL-2 melanoma
[3] = test system: UACC-62 melanoma
[4] = test system: OVCAR-5 ovarian
[5] = test system: MDA-MB-231 breast
[6] = test system: EKVX NSCLC
[7] = test system: HS 578T breast
[8] = test system: SW-620 colon
[9] = test system: MDA-MB-435
[10] = test system: SNB-75 CNS

Row | Structure (SMILES) | GI50 [1] | TGI [1] | GI50 [2] | TGI [2] | GI50 [3] | TGI [3] | GI50 [4] | TGI [4] | GI50 [5] | TGI [5] | GI50 [6] [µM] | TGI [6] | GI50 [7] | TGI [7] | GI50 [8] | TGI [8] | GI50 [9] | TGI [9] | GI50 [10] | TGI [10]
1 | COc1ccc(-c2c(C#N)c(N3CCOCC3)nc3[nH]c(=S)[nH]c(=S)c23)cc1OC | 39.6 µM | > 100 µM | > 100 µM | > 100 µM | 20.1 µM | 76.1 µM | > 100 µM | > 100 µM | 13.9 µM | 77.1 µM | > 100 | > 100 µM | 47.3 µM | > 100 µM | 49.1 µM | > 100 µM | 54.8 µM | > 100 µM | – | –
2 | CCCCNCCCNCCCNC(=O)c1csc(-c2csc(CCNC(=O)C(NC(=O)C(C)C(O)C(C)NC(=O)C(NC(=O)c3nc(C(CC(N)=O)NCC(N)C(N)=O)nc(N)c3C)C(OC3OC(CO)C(O)C(O)C3OC3OC(CO)C(O)C(OC(N)=O)C3O)c3cnc[nH]3)C(C)O)n2)n1 (stereo unspecified) | 1.22 µM | 50 µM and > 27.1 µM | – | 17.3 µM | 0.68 µM | 11.8 µM and 4.8 µM | 5.86 µM | 50 µM and > 44.5 µM | – | 50 µM | > 50 | > 50 µM and 61.8 µM | – | 50 µM | 11 µM | 50 µM and > 100 µM | – | 50 µM | 0.0257 µM | 0.716 µM and 3.37 µM
3 | O=c1[nH]c(O)c(C=Nc2ccc(-c3nc4ccccc4o3)cc2)c(=O)[nH]1 | > 100 µM | > 100 µM | 37.8 µM | > 100 µM | 35.6 µM | > 100 µM | > 100 µM | > 100 µM | 29.2 µM | > 100 µM | > 100 | > 100 µM | > 100 µM | > 100 µM | 40.6 µM | > 100 µM | 33.3 µM | > 100 µM | > 100 µM | > 100 µM
4 | NC(N)=Nc1nc2ccccc2o1 | > 100 µM | > 100 µM | > 100 µM | > 100 µM | > 100 µM | > 100 µM | > 100 µM | > 100 µM | > 100 µM | > 100 µM | > 100 | > 100 µM | – | – | > 100 µM | > 100 µM | > 100 µM | > 100 µM | > 100 µM | > 100 µM
5 | COc1c2occc2c(N)c2ccc(=O)oc12 | – | > 100 µM | – | > 100 µM | – | > 100 µM | – | > 100 µM | – | > 100 µM | – | > 100 µM | – | > 100 µM | – | > 100 µM | – | > 100 µM | – | 69.1 µM
6 | COc1ccc(-c2cc(=O)oc3c4c(ccc23)OCN(Cc2ccc(F)cc2)C4)cc1 | 19.4 µM | 58.3 µM | 16.3 µM | 31.3 µM | 14.7 µM | 29.3 µM | 18.4 µM | 45.1 µM | 18.5 µM | 40.2 µM | – | – | 15.8 µM | 47.9 µM | 16.3 µM | 31.8 µM | 16.5 µM | 34.7 µM | 6.62 µM | 25.3 µM
7 | Cc1cccc(NC2=C(Cl)C(=O)c3nc(C)ccc3C2=O)c1 | 2.2 µM | > 100 µM | 1.93 µM | 4.19 µM | 1.13 µM | 2.49 µM | 1.82 µM | 3.61 µM | 0.904 µM | 2.42 µM | 1.47 | 2.8 µM | 1.68 µM | 4.58 µM | 1.64 µM | 4.27 µM | 0.218 µM | 0.469 µM | 2.73 µM | 7.33 µM
8 | CCSc1nc(N=Cc2ccccc2O)c2cn[nH]c2n1 | 52.8 µM | > 100 µM | 39.9 µM | > 100 µM | 16.4 µM | 54.7 µM | 21.1 µM | 66.9 µM | 12.7 µM | > 100 µM | 47.2 | > 100 µM | 20.9 µM | 69.2 µM | 38.4 µM | > 100 µM | 19.7 µM | 72.8 µM | – | –
9 | NC(=S)N/N=C/c1ncccc1O | 1.76 µM | 33.2 µM and 42.7 µM | 21.3 µM | > 40 µM and 135 µM | 1.67 µM | 11 µM and 9.55 µM | 5.21 µM | > 82.4 µM and 154 µM | – | > 1000 µM | 8.58 | > 92.8 µM and 28.1 µM | – | 835 µM | 3.3 µM | > 839 µM | 1.33 µM | > 471 µM | 2.16 µM | > 51.9 µM and 60.6 µM
10 | COc1ccc(Cl)cc1NC(=O)c1ccc(NC2=C(Cl)C(=O)N(Cc3ccccc3)C2=O)cc1 | 1.43 µM | 13.4 µM | – | – | 33.7 µM | > 100 µM | > 100 µM | > 100 µM | 26.2 µM | > 100 µM | > 100 | > 100 µM | 37.1 µM | > 100 µM | 93 µM | > 100 µM | 99.7 µM | > 100 µM | – | –
11 | CCn1cc(-c2ccnc3[nH]c(-c4cccc(CN(C)C)c4)cc23)c(-c2ccc(NC(=O)N(C)C)cc2)n1 | 2.15 µM and 1.74 µM | 39.3 µM and > 10 µM | 2.43 µM and 2.19 µM | 9.87 µM and > 10 µM | 2.49 µM and 5.74 µM | 22.5 µM and > 10 µM | 1.56 µM and 4.74 µM | 14.6 µM and > 10 µM | 3.52 µM and 2.95 µM | 19.8 µM and > 10 µM | 3.87 | > 10 µM | 1.52 µM and 1.2 µM | 9.99 µM and 6.9 µM | 0.566 µM and 0.533 µM | 13.7 µM and > 10 µM | 4.77 µM and > 10 µM | 21.4 µM and > 10 µM | 0.217 µM and 0.461 µM | 2.38 µM and 3.42 µM
12 | CCCCCCCCSC1=C(Cl)C(=O)C(OC)=C(OC)C1=O | – | – | – | 30.9 µM | – | 24 µM | – | 21.1 µM | – | 29 µM | – | 24.9 µM | – | 66.6 µM | – | 84 µM | – | 35.4 µM | – | 46.3 µM
13 | O=C(Nc1nc(-c2c[nH]c3ccccc23)cs1)c1n[nH]c(=O)c2ccccc12 | 0.792 µM | > 35.4 µM | 13.4 µM | > 100 µM | 1.45 µM | > 100 µM | 73 µM | > 100 µM | 25.7 µM | > 100 µM | 51.3 | > 100 µM | 5.52 µM | 55 µM | 1.91 µM | > 100 µM | 3.96 µM | > 100 µM | 16.2 µM | > 67.8 µM
